IC50, half-life and solubility data for 22 compounds are collected here from patent US20230106506A1, “NOVEL PqsR INVERSE AGONISTS” (Helmholtz-Zentrum Fur Infektionsforschung GmbH, priority 2020, published 2023).

Bounds are passed on as bounds.

The subject of series [1] is P. aeruginosa pyocyanin production. The experiment in a line: Pyocyanin assay. The note with it: Pseudomonas aeruginosa, PA14, 16 h, read-out: IC50-value towards pyocyanin production. Format: cell-based, P. aeruginosa strain PA14. The method, then:
Inhibition of P. aeruginosa pyocyanin production by compounds was determined photometrically as described before. In short, an overnight culture of PA14 in PPGAS medium was washed, diluted in medium to a start OD600 of 0.02, and incubated for 16 h (37° C., 200 rpm, relative humidity 75%) in the presence of test compounds. Then, cultures were extracted with chloroform and re-extracted with 0.2 M HCl. Protonated red colored pyocyanin was determined by measuring OD520 and normalizing to OD600.

The nature of series [2]: Metabolic stability in mouse liver microsomes (MLM). Format: in vitro ADME. The note with it: 1 μM compound, 0.5 mg/mL MLM, 1 mM NADPH, 37° C., read-out: half-life (t1/2) towards MLM. As to the method: For the evaluation of phase I metabolic stability, the compound (1 μM) was incubated with 0.5 mg/mL MLM (Corning) and 1 mM NADPH at 37° C. for 0, 5, 10, 15 and 30 min. The metabolic stability of Verapamil, Diphenhydramine and Benzydamine (1 μM each) were determined in parallel to confirm the enzymatic activity of the MLM. The incubation was stopped by addition of 2 volumes of acetonitrile containing internal standard (1 μM Leucine Enkephaline). Samples were centrifuged (15 min, 3,500 rpm). Concentration of the remaining test compound at the different time points was analyzed by HPLC-MS/MS and used to determine half-life (t1/2).
Background: Microsomes from liver hold many membrane-bound enzymes, among them those of drug oxidation.

The nature of series [3]: Kinetic turbidimetric aqueous solubility. Format: physicochemical. The note with it: aqueous buffer, kinetic from dmso stock; PBS buffer, final DMSO 2%, absorbance 620 nm; read-out: Kinetic Turbidimetric Aqueous Solubility at room temperature for 5 min. As to the method:
Kinetic Turbidimetric Aqueous Solubility at room temperature for 5 min. […] Data was analyzed by fitting a four parameter sigmoidal function to the measured and normalized absorbances and AUC calculation providing access to Log S (decadic logarithm of the solubility).

One may read the IC50 as the concentration that gives 50% inhibition. For orientation: solubility means the dissolved amount per volume that the medium holds. As for `CC(C)Oc1ccc(-c2ccc(CNc3cc(-c4cn[nH]c4)nc(C(F)(F)F)c3)nc2)cc1` [Compound 20, N-((5-(4-Isopropoxyphenyl)pyridin-2-yl)methyl)-2-(1H-pyrazol-4-yl)-6-(trifluoromethyl)pyridin-4-amine], the IC50 in series [1] is 0.101 to 0.2 µM. Further, the half-life at 1 µM in series [2] was above 1.67 h. The solubility at 5 min in series [3] is above 10 µM.
Consider `CC(C)Oc1ccc(-c2ccc(CNc3cc(-c4cn[nH]c4)nc(C(F)(F)F)c3)cn2)cc1` [Compound 21, N-((6-(4-Isopropoxyphenyl)pyridin-3-yl)methyl)-2-(1H-pyrazol-4-yl)-6-(trifluoromethyl)pyridin-4-amine], for which the IC50 in series [1] is 0.101 to 0.2 µM. Further, in series [2], the half-life at 1 µM is above 1.67 h. In addition, the solubility at 5 min in series [3] was above 25 µM.
Regarding `CC(C)Oc1ccc(-c2ccc(CNc3cc(-c4cn[nH]c4)nc(C(F)(F)F)c3)cn2)cc1Cl` [Compound 23, N-((6-(3-Chloro-4-isopropoxyphenyl)pyridin-3-yl)methyl)-2-(1H-pyrazol-4-yl)-6-(trifluoromethyl)pyridin-4-amine], the IC50 in series [1] fell in the range of 0.201 to 0.5 µM. Further, in series [2], the half-life at 1 µM is above 1.67 h. Moreover, the solubility at 5 min in series [3] is above 25 µM.
For `CC(C)Oc1ccc(-c2ccc(CNc3cc(-c4cn[nH]c4)nc(C(F)(F)F)c3)nc2)cc1Cl` [Compound 24, N-((5-(3-Chloro-4-isopropoxyphenyl)pyridin-2-yl)methyl)-2-(1H-pyrazol-4-yl)-6-(trifluoromethyl)pyridin-4-amine] the same measures were 0.201 to 0.5 µM, above 1.67 h and above 10 µM.
For `CC(C)Oc1ccc(-c2cnc(CNc3cc(-c4cn[nH]c4)nc(C(F)(F)F)c3)cn2)cc1` [Compound 27, N-((5-(4-Isopropoxyphenyl)pyrazin-2-yl)methyl)-2-(1H-pyrazol-4-yl)-6-(trifluoromethyl)pyridin-4-amine] the same measures were 0.101 to 0.2 µM, above 1.67 h and above 25 µM.
On to `CC(C)Oc1ccc(-c2ncc(CNc3cc(-c4cn[nH]c4)nc(C(F)(F)F)c3)cn2)cc1` [Compound 28, N-((2-(4-Isopropoxyphenyl)pyrimidin-5-yl)methyl)-2-(1H-pyrazol-4-yl)-6-(trifluoromethyl)pyridin-4-amine], for which the half-maximal inhibitory concentration (IC50) in series [1] is at most 0.1 µM. Also, the half-life at 1 µM in series [2] lay within 1.02 to 1.67 h. In addition, the solubility at 5 min in series [3] is above 25 µM.
In the case of `CC(C)Oc1ccc(-c2ncc(CNc3cc(-n4ccnc4)nc(C(F)(F)F)c3)cn2)cc1Cl` [Compound 30, N-((2-(3-Chloro-4-Isopropoxyphenyl)pyrimidin-5-yl)methyl)-2-(1H-imidazol-1-yl)-6-(trifluoromethyl)pyridin-4-amine], the half-maximal inhibitory concentration (IC50) in series [1] is 0.101 to 0.2 µM. For the same compound, the half-life at 1 µM in series [2] is above 1.67 h. For the same compound, in series [3], the solubility at 5 min is above 10 µM.
With `CC(C)Oc1ccc(-c2ncc(CNc3cc(-c4cc[nH]n4)nc(C(F)(F)F)c3)cn2)cc1` [Compound 31, N-((2-(4-Isopropoxyphenyl)pyrimidin-5-yl)methyl)-2-(1H-pyrazol-3-yl)-6-(trifluoromethyl)pyridin-4-amine], the IC50 in series [1] was in the range of 0.201 to 0.5 µM. Moreover, the half-life at 1 µM in series [2] was above 1.67 h. For the same compound, the solubility at 5 min in series [3] was above 10 µM.
As to `FC(F)(F)c1cc(NCc2cnc(-c3ccc(Cl)cc3)nc2)cc(-c2cn[nH]c2)n1` [Compound 33, N-((2-(4-Chlorophenyl)pyrimidin-5-yl)methyl)-2-(1H-pyrazol-4-yl)-6-(trifluoromethyl)pyridin-4-amine], the IC50 in series [1] lay in the range of 0.201 to 0.5 µM. For the same compound, in series [2], the half-life at 1 µM lay in the range of 1.02 to 1.67 h. In addition, the solubility at 5 min in series [3] is above 10 µM.
Consider `Fc1cc(-c2ncc(CNc3cc(-c4cn[nH]c4)nc(C(F)(F)F)c3)cn2)ccc1Cl` [Compound 34, N-((2-(4-Chloro-3-fluorophenyl)pyrimidin-5-yl)methyl)-2-(1H-pyrazol-4-yl)-6-(trifluoromethyl)pyridin-4-amine], for which the half-inhibitory concentration (IC50) in series [1] was in the range of 0.201 to 0.5 µM. Besides, the half-life at 1 µM in series [2] is above 1.67 h. Further, in series [3], the solubility at 5 min was above 10 µM.
Consider `FC(F)(F)c1cc(NCc2cnc(-c3ccc(Cl)c(Cl)c3)nc2)cc(-c2cn[nH]c2)n1` [Compound 35, N-((2-(3,4-Dichlorophenyl)pyrimidin-5-yl)methyl)-2-(1H-pyrazol-4-yl)-6-(trifluoromethyl)pyridin-4-amine], for which the IC50 in series [1] was 0.101 to 0.2 µM. The half-life at 1 µM in series [2] was above 1.67 h. Further, the solubility at 5 min in series [3] is above 10 µM.
Turning to `N#Cc1cc(-c2ncc(CNc3cc(-n4cncn4)nc(C(F)(F)F)c3)cn2)ccc1Cl` [Compound 39, 5-(5-(((2-(1H-1,2,4-Triazol-1-yl)-6-(trifluoromethyl)pyridin-4-yl)amino)methyl)pyrimidin-2-yl)-2-chlorobenzonitrile], the 50% inhibitory concentration (IC50) in series [1] lay in the range of 0.101 to 0.2 µM. For the same compound, the half-life at 1 µM in series [2] is above 1.67 h. In addition, in series [3], the solubility at 5 min was above 10 µM.
For the compound `CC(C)Oc1ccc(-c2cnc(CNc3cc(-c4cn[nH]c4)nc(C(F)(F)F)c3)nc2)cc1Cl` [Compound 47, N-((5-(3-Chloro-4-isopropoxyphenyl)pyrimidin-2-yl)methyl)-2-(1H-pyrazol-4-yl)-6-(trifluoromethyl)pyridin-4-amine], the IC50 in series [1] lay in the range of 0.201 to 0.5 µM. Besides, the half-life at 1 µM in series [2] was 0.5 to 1 h. Further, the solubility at 5 min in series [3] was above 10 µM.
`CC(C)Oc1ccc(-c2ncc(CNc3cc(-c4cn[nH]c4)nc(C(F)(F)F)c3)cn2)cc1F` [Compound 49, N-((2-(3-Fluoro-4-isopropoxyphenyl)pyrimidin-5-yl)methyl)-2-(1H-pyrazol-4-yl)-6-(trifluoromethyl)pyridin-4-amine]: the half-maximal inhibitory concentration (IC50) in series [1] is 0.101 to 0.2 µM. Further, the half-life at 1 µM in series [2] was above 1.67 h. The solubility at 5 min in series [3] is above 10 µM.
As for `Fc1ccccc1Oc1ccc(-c2ncc(CNc3cc(-c4cn[nH]c4)nc(C(F)(F)F)c3)cn2)cc1` [Compound 51, N-((2-(4-(2-Fluorophenoxy)phenyl)pyrimidin-5-yl)methyl)-2-(1H-pyrazol-4-yl)-6-(trifluoromethyl)pyridin-4-amine], the IC50 in series [1] was 0.101 to 0.2 µM. In addition, the half-life at 1 µM in series [2] is above 1.67 h. For the same compound, in series [3], the solubility at 5 min is above 50 µM.
For `FC(F)(F)c1cc(NCc2cnc(-c3ccc(Oc4ccc(Cl)cc4)cc3)nc2)cc(-c2cn[nH]c2)n1` [Compound 54, N-((2-(4-(4-Chlorophenoxy)phenyl)pyrimidin-5-yl)methyl)-2-(1H-pyrazol-4-yl)-6-(trifluoromethyl)pyridin-4-amine], in series [2], the half-life at 1 µM was above 1.67 h. The solubility at 5 min in series [3] was above 10 µM.
For `FC(F)(F)Oc1ccc(-c2ncc(CNc3cc(-c4cn[nH]c4)nc(C(F)(F)F)c3)cn2)cc1` [Compound 55, 2-(1H-Pyrazol-4-yl)-N-((2-(4-(trifluoromethoxy)phenyl)pyrimidin-5-yl)methyl)-6-(trifluoromethyl)pyridin-4-amine], the half-maximal inhibitory concentration (IC50) in series [1] is 0.201 to 0.5 µM. Besides, the half-life at 1 µM in series [2] is above 1.67 h. Further, the solubility at 5 min in series [3] is above 10 µM.
For `Nc1ccc(Oc2ccc(-c3ncc(CNc4cc(-c5cn[nH]c5)nc(C(F)(F)F)c4)cn3)cc2)cc1` [Compound 56, N-((2-(4-(4-Aminophenoxy)phenyl)pyrimidin-5-yl)methyl)-2-(1H-pyrazol-4-yl)-6-(trifluoromethyl)pyridin-4-amine] the same measures were 0.101 to 0.2 µM, 1.02 to 1.67 h and above 10 µM.
With `CC(C)Oc1ccc(-c2cnc(CNc3cc(-c4cn[nH]c4)nc(C(F)(F)F)c3)cn2)cc1Cl` [Compound 57, N-((5-(3-Chloro-4-isopropoxyphenyl)pyrazin-2-yl)methyl)-2-(1H-pyrazol-4-yl)-6-(trifluoromethyl)pyridin-4-amine], the IC50 in series [1] lay in the range of 0.101 to 0.2 µM. Besides, in series [2], the half-life at 1 µM is above 1.67 h. In addition, the solubility at 5 min in series [3] is above 25 µM.
As to `CC(C)Oc1ccc(-c2ccc(CNc3cc(-c4cn[nH]c4)nc(C(F)(F)F)c3)nn2)cc1Cl` [Compound 58, N-((6-(3-Chloro-4-isopropoxyphenyl)pyridazin-3-yl)methyl)-2-(1H-pyrazol-4-yl)-6-(trifluoromethyl)pyridin-4-amine], the half-inhibitory concentration (IC50) in series [1] is 0.101 to 0.2 µM. For the same compound, in series [2], the half-life at 1 µM is above 1.67 h. In addition, the solubility at 5 min in series [3] is above 25 µM.
Consider `CC(C)Oc1ccc(-c2ncc(CNc3cc(-n4cncn4)nc(C(F)(F)F)c3)cn2)cc1Cl` [Compound 60, N-((2-(3-Chloro-4-isopropoxyphenyl)pyrimidin-5-yl)methyl)-2-(1H-1,2,4-triazol-1-yl)-6-(trifluoromethyl)pyridin-4-amine], for which the IC50 in series [1] was in the range of 0.101 to 0.2 µM. Also, the half-life at 1 µM in series [2] was in the range of 1.02 to 1.67 h. The solubility at 5 min in series [3] is above 10 µM.
Regarding `FC(F)(F)c1cc(NCc2nc3cc(Oc4ccccc4)ccc3[nH]2)cc(-n2ccnc2)n1` [Compound 61, 2-(1H-imidazol-1-yl)-N-((5-phenoxy-1H-benzo[d]imidazol-2-yl)methyl)-6-(trifluoromethyl)pyridin-4-amine], the concentration for half-maximal inhibition (IC50) in series [1] lay within 0.101 to 0.2 µM. Also, the half-life at 1 µM in series [2] was 0.5 to 1 h. Besides, the solubility at 5 min in series [3] is above 10 µM.
